Test results reported in ChEMBL document CHEMBL6177932 (J Med Chem, 2024).
Calls of active or inactive are those of the source. The calls are words filed in the database; no cut-off is given here.

Assays:
[1] = Toxicity in mouse B16-F10 cells implanted C57BL/6 mouse at 5 mg/kg, ip administered daily for 28 days; type: organism-based; details: in vivo, time 28 day
[2] = target: Histone deacetylase 9 (Homo sapiens) (UniProt Q9UKV0); test: Inhibition of human HDAC9 at 100 uM using Boc-Lys(trifluoroacetyl)-AMC as substrate by fluorogenic assay
4T1 [3] = test: Inhibition of class 1 HDAC in mouse 4T1 cells assessed as induction of H3K27 acetylation at 10 uM measured after 6 hrs by Western blot analysis; type: cell-based
B16-F10 [4] = test: Cytotoxicity against mouse B16-F10 cells assessed as reduction in cell viability at 0.01 to 100 uM measured after 24 hrs by RealTime-glo cell viability assay; type: functional, cell-based; details: dose 0.01-100 µM
B16-F10 [5] = test: Inhibition of class 1 HDAC in mouse B16-F10 cells assessed as induction of H3K27 acetylation at 10 uM measured after 6 hrs by Western blot analysis; type: cell-based
[6] = Toxicity in 4T1 cells implanted BALB/c mouse assessed as stress at 1.5 to 5 mg/kg, ip administered daily for 18 days; type: organism-based; details: in vivo, 432 h, dose 1.5-5 mg/kg, time 18 day
4T1 [7] = test: Inhibition of class 1 HDAC in mouse 4T1 cells assessed as induction of H3K9 acetylation at 10 uM measured after 6 hrs by Western blot analysis; type: cell-based
B16-F10 [8] = test: Antitumor activity against mouse B16-F10 cells implanted in C57BL/6 mouse assessed as reduction in tumor burden at 5 mg/kg, ip administered every second day for 18 days; type: functional, organism-based; details: time 18.0 day
[9] = target: T1, Vitamin D3 receptor (Mus musculus) (UniProt P48281); test: Agonist activity at VDR in mouse 4TO7 cells assessed as induction of Cyp24a1 gene at 0.1 to 10 uM measured after 24 hrs by RT-qPCR analysis; type: cell-based; details: filed as agonist, dose 0.1-10 µM
T1 sequence (whole entry): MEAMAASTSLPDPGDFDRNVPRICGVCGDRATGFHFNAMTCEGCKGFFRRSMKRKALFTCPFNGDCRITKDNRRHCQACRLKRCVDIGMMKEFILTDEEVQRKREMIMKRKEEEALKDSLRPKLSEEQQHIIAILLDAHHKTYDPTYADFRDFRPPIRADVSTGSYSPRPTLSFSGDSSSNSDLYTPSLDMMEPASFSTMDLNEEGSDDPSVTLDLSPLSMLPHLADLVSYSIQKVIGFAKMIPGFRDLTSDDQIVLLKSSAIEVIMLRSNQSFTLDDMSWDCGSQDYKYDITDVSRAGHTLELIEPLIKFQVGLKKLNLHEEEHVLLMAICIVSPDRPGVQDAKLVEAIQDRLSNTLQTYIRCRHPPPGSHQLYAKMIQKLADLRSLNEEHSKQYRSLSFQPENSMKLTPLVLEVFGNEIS

[10] = target: T2, Protein deacetylase HDAC6 (Mus musculus) (UniProt Q9Z2V5); test: Inhibition of HDAC6 in mouse 4TO7 cells assessed as induction of tubulin acetylation at 10 uM measured after 6 hrs by Western blot analysis; type: cell-based
T2 sequence (whole entry): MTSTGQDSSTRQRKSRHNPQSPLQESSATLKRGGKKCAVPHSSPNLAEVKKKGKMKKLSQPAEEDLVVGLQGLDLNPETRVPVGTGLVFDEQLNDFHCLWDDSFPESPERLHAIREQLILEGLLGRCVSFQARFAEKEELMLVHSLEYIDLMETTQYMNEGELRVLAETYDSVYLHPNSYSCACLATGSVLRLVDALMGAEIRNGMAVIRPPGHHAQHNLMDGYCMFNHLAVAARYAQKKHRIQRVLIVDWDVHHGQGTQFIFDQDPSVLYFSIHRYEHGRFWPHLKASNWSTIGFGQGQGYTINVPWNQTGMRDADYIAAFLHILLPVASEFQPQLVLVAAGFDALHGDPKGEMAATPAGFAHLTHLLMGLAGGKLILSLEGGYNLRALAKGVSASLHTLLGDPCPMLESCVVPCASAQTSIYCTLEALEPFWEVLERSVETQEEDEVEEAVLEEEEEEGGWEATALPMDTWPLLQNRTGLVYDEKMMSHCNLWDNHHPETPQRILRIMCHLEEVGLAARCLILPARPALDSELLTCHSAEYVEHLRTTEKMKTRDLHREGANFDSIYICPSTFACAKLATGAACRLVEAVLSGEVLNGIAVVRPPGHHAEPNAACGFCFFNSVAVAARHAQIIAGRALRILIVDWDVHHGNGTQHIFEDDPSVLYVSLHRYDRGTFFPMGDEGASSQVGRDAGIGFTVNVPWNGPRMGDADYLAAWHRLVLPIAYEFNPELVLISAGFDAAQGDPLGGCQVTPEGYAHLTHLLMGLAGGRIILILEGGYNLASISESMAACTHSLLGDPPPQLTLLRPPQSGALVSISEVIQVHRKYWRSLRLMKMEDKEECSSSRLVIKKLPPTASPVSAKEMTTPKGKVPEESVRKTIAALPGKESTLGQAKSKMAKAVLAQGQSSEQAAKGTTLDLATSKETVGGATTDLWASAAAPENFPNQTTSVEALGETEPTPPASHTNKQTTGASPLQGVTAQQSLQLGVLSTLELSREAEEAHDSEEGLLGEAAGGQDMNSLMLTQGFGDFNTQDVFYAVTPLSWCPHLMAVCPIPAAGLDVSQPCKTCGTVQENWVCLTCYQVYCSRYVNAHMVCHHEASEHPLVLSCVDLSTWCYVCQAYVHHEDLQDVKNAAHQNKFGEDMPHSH

Mus musculus [11] = test: Immunomodulatory activity in mouse 4T1 cells implanted BALB/c mouse assessed as reduction in M2 macrophage infiltration into tumors at 1.5 to 5 mg/kg, ip administered daily for 18 days by arginase 1 staining based immunofluorescence microscopy; type: functional, organism-based; details: dose 1.5-5 mg/kg, time 18.0 day
Mus musculus [12] = test: Immunomodulatory activity in mouse 4T1 cells implanted BALB/c mouse assessed as reduction in total macrophage infiltration into tumors at 1.5 to 5 mg/kg, ip administered daily for 18 days by F4/80 staining based immunofluorescence microscopy; type: functional, organism-based; details: dose 1.5-5 mg/kg, time 18.0 day
4TO7 = test: Inhibition of class 1 HDAC in mouse 4TO7 cells assessed as induction of H3K27 acetylation at 10 uM measured after 6 hrs by Western blot analysis; type: cell-based
[13] = Toxicity in 4T1 cells implanted BALB/c mouse assessed as body weight loss at 1.5 to 5 mg/kg, ip administered daily for 18 days; type: organism-based; details: in vivo, 432 h, dose 1.5-5 mg/kg, time 18 day
Mus musculus [14] = test: Immunomodulatory activity in mouse 4T1 cells implanted BALB/c mouse assessed as induction of Il1a gene expression at 1.5 to 5 mg/kg, ip administered daily for 18 days by RT-qPCR analysis; type: functional, organism-based; details: dose 1.5-5 mg/kg, time 18.0 day
Mus musculus [15] = test: Immunomodulatory activity in mouse 4T1 cells implanted BALB/c mouse assessed as reduction in Ccl20 gene expression at 1.5 to 5 mg/kg, ip administered daily for 18 days by RT-qPCR analysis; type: functional, organism-based; details: dose 1.5-5 mg/kg, time 18.0 day

Chain of Histone deacetylase 9 (Homo sapiens) (Q9UKV0 whole entry): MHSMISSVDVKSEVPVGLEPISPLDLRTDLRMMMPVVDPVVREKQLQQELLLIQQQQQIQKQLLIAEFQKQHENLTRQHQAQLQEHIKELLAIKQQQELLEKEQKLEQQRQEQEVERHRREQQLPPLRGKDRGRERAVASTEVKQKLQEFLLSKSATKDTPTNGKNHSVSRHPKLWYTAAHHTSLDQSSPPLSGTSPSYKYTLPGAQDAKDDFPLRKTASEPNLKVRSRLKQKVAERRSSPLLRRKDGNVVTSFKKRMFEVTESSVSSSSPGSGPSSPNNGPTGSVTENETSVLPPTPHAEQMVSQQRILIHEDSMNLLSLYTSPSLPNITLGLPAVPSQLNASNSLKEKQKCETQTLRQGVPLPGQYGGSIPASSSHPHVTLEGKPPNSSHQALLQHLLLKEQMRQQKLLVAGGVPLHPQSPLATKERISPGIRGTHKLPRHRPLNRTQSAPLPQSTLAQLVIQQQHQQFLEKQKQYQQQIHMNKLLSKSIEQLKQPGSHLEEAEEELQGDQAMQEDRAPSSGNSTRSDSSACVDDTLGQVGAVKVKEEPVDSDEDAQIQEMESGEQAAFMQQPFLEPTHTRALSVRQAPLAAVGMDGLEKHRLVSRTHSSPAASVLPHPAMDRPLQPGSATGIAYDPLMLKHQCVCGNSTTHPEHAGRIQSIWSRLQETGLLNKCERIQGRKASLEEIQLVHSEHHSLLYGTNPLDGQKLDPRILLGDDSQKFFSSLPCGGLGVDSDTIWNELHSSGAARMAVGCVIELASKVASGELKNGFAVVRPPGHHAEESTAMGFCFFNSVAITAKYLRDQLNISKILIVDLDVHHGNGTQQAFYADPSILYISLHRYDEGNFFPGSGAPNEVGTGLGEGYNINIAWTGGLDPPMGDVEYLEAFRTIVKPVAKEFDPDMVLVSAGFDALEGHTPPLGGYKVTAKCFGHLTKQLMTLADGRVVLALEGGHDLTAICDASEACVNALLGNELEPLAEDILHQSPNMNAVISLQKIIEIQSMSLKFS

- Activity [9]: Active
Structure (SMILES): CCC(CC)(c1ccc(C(=O)NCCCCC(=O)NO)cc1)c1ccc(OCC(O)C(C)(C)C)c(C)n1 (stereo unspecified)
- Activity [1]: Non-toxic
- inhibition [2]: Not active; No Or Very Limited Inhibition Was Observed
- inhibition (4T1 [3]): Active
- Activity (B16-F10 [4]): Active
- inhibition (B16-F10 [5]): Active; Acetylation Was Comparable Or Greater Than Saha
- Activity [6]: Non-toxic
- inhibition (4T1 [7]): Active
- Activity (B16-F10 [8]): Active
- inhibition [10]: Active; Induced Higher Levels Of Acetylation Than Saha
- Activity (Mus musculus [11]): Active; Compound Was Most Efficacious At Reducing The M2 Macrophages
- Activity (Mus musculus [12]): Active; Significantly Reduced Macrophage Infiltration Into Tumor
- inhibition (4TO7): Active; Induced Higher Levels Of Acetylation Than Saha
- Activity [13]: Non-toxic
- Activity (Mus musculus [14]): Active
- Activity (Mus musculus [15]): Active
